Results taken from publication PMC11111408, “Concurrent inhibition of oncogenic and wild-type RAS-GTP for cancer therapy” (Nature, 2024).
Several values for one entry are separate records, joined by “and”; a condition that tells them apart may be missing. Identical values can stand only once.

Key:
[1] = biological target: RAS; assay: Binding of the CYPA–RMC-7977 binary complex to RAS (Kd2), SPR; design: species or system human; settings: all three wild-type RAS proteins
Source text: The basic nitrogen of the piperazine forms a cation–π interaction with W121. e, Oriented by the hydrogen bond to CYPA W121, RAS Y64 forms π-stacking interactions with the pyridine and indole groups. […] Data are mean ± s.d. of independent experiments (KRAS variants (green): wild-type (WT) KRAS, n = 4; KRAS(G12C), KRAS(G12D), KRAS(G12R), KRAS(G12V), KRAS(G13D), n = 6; NRAS variants (blue): NRAS(WT), NRAS(Q61L), n = 4; NRAS(Q61K), NRAS(Q61R), n = 6; HRAS variants (purple): HRAS(WT), n = 5; HRAS(G13R), n = 6; slope = 0.99, 95% confidence interval: 0.8–1.2, R^2 = 0.99; values also shown in Extended Data Tables 1–3).
The binding affinity of compound-bound CYPA for the mutant oncogenic RAS proteins (Kd2) mentioned was assessed by SPR on a Biacore 8 K instrument. […] The SPR sensorgrams were fit using either a steady state affinity model or a 1:1 binding (kinetic) model to assess the dissociation constant (Kd) for RAS binding.

[2] = biological target: KRAS^G13D (Homo sapiens, UniProt P01116+P62937, G13D); assay: Cellular RAS–CYPA binding (tri-complex formation), nano-BRET in U2OS cells; type: cell-based; settings: (95% CI)
Source text: (§1) KRAS4B, or other small GTPases, containing the indicated mutations were cloned in pNLF-N or pHTN plasmids for expression with an N-terminal nanoluciferase or HaloTag fusion, respectively. […] The following day, the cells were collected by Trypsin and reseeded in a white tissue culture-treated 96-well plate in OptiMem phenol red-free medium (Gibco) containing 4% FBS and a 1:1,000 dilution of NanoBRET 618 HaloTag ligand (Promega). For endpoint concentration response curves, vivazine nanoluciferase substrate was added to 1× concentration in OptiMem phenol red-free medium with 4% FBS. Varying concentrations of inhibitor were added and incubated for 1 or 4 h before the nano-BRET signal was measured on a Perkin Elmer Envision plate reader. For kinetic assays, endurazine nanoluciferase substrate was used in place of vivazine, and the plate was placed in a Cytation5 multi-mode reader pre-equilibrated to 37 °C and 5% CO2.

[3] = biological target: HRAS WT (Homo sapiens, UniProt P01112+P62937); assay: Biochemical RAS–RAF (BRAF RBD) disruption, TR-FRET; design: His6-TEV (N); made in house; host or cells: E. coli BL21(DE3)
Source text: (§2) Time-resolved fluorescence resonance energy transfer (TR-FRET) was used as previously described to assess disruption of the interactions between wild-type RAS or the mutant oncogenic RAS proteins and the RAS-binding domain of BRAF, and to assess the induction of interactions between the RAS proteins and CYPA[12].

[4] = biological target: T1, KRAS^G12S (Homo sapiens, UniProt P01116+P62937, G12S); assay: Biochemical RAS–RAF (BRAF RBD) disruption, TR-FRET; design: His6-TEV (N); made in house; host or cells: E. coli BL21(DE3)
Source text: as §2

[5] = tested on: antigen specific CD8+ T cells, C57BL/6J mice; assay: OVA peptide vaccination, CD8+ T cell response; type: in vivo, mouse; settings: individual mice; for IFNγ production by ELISpot: 25 mg/kg PO daily, 25 mg/kg
Description: Mice were euthanized on day 15 after treatment start, and spleens were harvested and assessed for frequency of antigen specific (H-2Kb [sequence] tetramer positive) CD8 + T cells by flow cytometry (a) and for IFNγ production by ELISpot.
Briefly, bone marrow was isolated from the femurs and tibias of 6-8 week-old female C57BL/6J mice (Jackson Laboratory). Bone marrow cells were plated in complete RPMI containing 10% FBS, 1 mM Sodium Pyruvate, mM HEPES, 1x MEM Non-Essential Amino Acids, and supplemented with GMCSF (Peprotech) at 20 ng/ml. On day 10, 0.5 ng/ml IL-4 (Peptotech) was added to the media. 50% of the media was replaced with fresh GMCSF-containing media on culture days 6, 8, and 10. […] 100% of the media was replaced on culture days 12 and 13. To activate BMDCs prior to vaccination, 0.5 μg/ml CpG (Invivogen, tlrl-1668) and 1 μg/ml LPS (Sigma Aldrich, L5418) were added to the media on day 13. On culture day 14, activated BMDCs were pulsed with OVA peptide ([sequence]) (1 μg/ml, Anaspec, AS-60193-1) for 2 hours and washed 3 times in serum-free RPMI. 1x10^6 peptide-pulsed, activated BMDCS were injected intravenously into each mouse on day 0 and day 8. […] After 15 days of treatment, mice were euthanized and spleens were harvested. Spleens were mechanically dissociated into single-cell suspension, incubated at 4°C for 20 minutes with Mouse Fc blocking agent (anti-CD16/32, Biolegend) and Live/Dead blue Viability Dye (ThermoFisher), and 20 minutes with cell staining antibody mix. […] Murine IFN𝛄 ELISpot (ImmunoSpot, CTL) was performed according to manufacturer’s protocol. Briefly, spleens were mechanically dissociated into single-cell suspension. […] Plates were incubated at 37°C, 5% CO2 for 24 hours before staining and analysis on the CTL ImmunoSpot S6 Universal M2 Analyzer.

[6] = Oral bioavailability in mice (LC-MS/MS of blood); type: in vivo; settings: mouse, whole blood, read-out: Oral Bioavailability m%F
[7] = biological target: T1, KRAS^G12S; assay: Cellular RAS–CYPA binding (tri-complex formation), nano-BRET in U2OS cells; type: cell-based; design: expressed in transfected cells; host or cells: U2OS PPIA-KO; settings: (95% CI)
Source text: as §1

[8] = biological target: KRAS^G12V (Homo sapiens, UniProt P01116+P62937, G12V); assay: as above; type: cell-based; design: expressed in transfected cells; host or cells: U2OS PPIA-KO; settings: for Cellular milliBRET signal between CYPA and KRAS G12V: KRASG12V, single replicates
Source text: as §1

[9] = tested on: Pa16C cells expressing MEK1 mutants; assay: Proliferation (Calcein AM) of Pa16C cells expressing MEK1 mutants; type: cell-based, human

CCn1c(-c2cc(N3CCN(C4CC4)CC3)cnc2[C@H](C)OC)c2c3cc(ccc31)-c1csc(n1)C[C@H](NC(=O)[C@H]1[C@@H]3COC[C@@H]31)C(=O)N1CCC[C@H](N1)C(=O)OCC(C)(C)C2 [RMC-7977]
Kd [1]: ~100 nM | EC50 [2]: 4.99 nM | EC50 [3]: 59.9 nM | EC50 [4]: 107 nM | % Antigen specific CD8 T cells ([5]; spleen, day 15, 25 mg/kg PO daily, OVA peptide vaccinated C57BL/6J mice): 1.46% and 1.22% and 0.72% | IFNγ production by ELISpot ([5]; splenocytes stimulated with SIINFEKL): 1885 and 890 and 922 | IFNγ production by ELISpot ([5]; splenocytes, no stim): 35 and 80 and 53 | bioavailability [6]: 63% | EC50 [7]: 2.24 nM | Cellular milliBRET signal between CYPA and KRAS G12V ([8]; RMC-7977 0.152 nM): 1.173 milliBRET and 1.06 milliBRET and 0.9358 milliBRET and 1.334 milliBRET and 1.012 milliBRET and 1.508 milliBRET | Cellular milliBRET signal between CYPA and KRAS G12V ([8]; RMC-7977 0.457 nM): 1.649 milliBRET and 2.359 milliBRET and 1.781 milliBRET and 2.809 milliBRET and 1.779 milliBRET and 2.2094 milliBRET | Cellular milliBRET signal between CYPA and KRAS G12V ([8]; RMC-7977 1.372 nM): 4.1167 milliBRET and 4.336 milliBRET and 3.9 milliBRET and 4.218 milliBRET and 4.578 milliBRET and 4.094 milliBRET | Cellular milliBRET signal between CYPA and KRAS G12V ([8]; RMC-7977 4.115 nM): 7.461 milliBRET and 7.409 milliBRET and 7.89 milliBRET and 7.071 milliBRET and 7.622 milliBRET and 7.676 milliBRET | Cellular milliBRET signal between CYPA and KRAS G12V ([8]; RMC-7977 12.346 nM): 11.4839 milliBRET and 11.5824 milliBRET and 12.0176 milliBRET and 11.1912 milliBRET and 11.5065 milliBRET and 11.1163 milliBRET | Cellular milliBRET signal between CYPA and KRAS G12V ([8]; RMC-7977 37.037 nM): 13.6301 milliBRET and 14.0182 milliBRET and 13.661 milliBRET and 13.6725 milliBRET and 13.3211 milliBRET and 13.487 milliBRET | Cellular milliBRET signal between CYPA and KRAS G12V ([8]; RMC-7977 111.111 nM): 14.1557 milliBRET and 14.0898 milliBRET and 14.0287 milliBRET and 13.9679 milliBRET and 13.745 milliBRET and 13.7924 milliBRET | Cellular milliBRET signal between CYPA and KRAS G12V ([8]; RMC-7977 333.333 nM): 14.0834 milliBRET and 13.7044 milliBRET and 13.6567 milliBRET and 12.9685 milliBRET and 13.078 milliBRET and 12.7653 milliBRET | Cellular milliBRET signal between CYPA and KRAS G12V ([8]; RMC-7977 1000.000 nM): 14.1055 milliBRET and 12.901 milliBRET and 13.6313 milliBRET and 12.8159 milliBRET and 14.3526 milliBRET and 13.1398 milliBRET | EC50 ([8]; KRAS^G12V, nano-BRET, (95% CI)): 2.25 nM | Proliferation of Pa16C cells expressing MEK1 mutant constructs ([9]; MEK1E102-I103del, inhibitor 0.010 nM): 100 | Proliferation of Pa16C cells expressing MEK1 mutant constructs ([9]; MEK1E102-I103del, inhibitor 0.046 nM): 104.2 and 107.7 and 121 and 88.4 | Proliferation of Pa16C cells expressing MEK1 mutant constructs ([9]; MEK1E102-I103del, inhibitor 11.111 nM): 80.9 and 75.7 and 68.8 and 87.1 | Proliferation of Pa16C cells expressing MEK1 mutant constructs ([9]; MEK1E102-I103del, inhibitor 33.333 nM): 72.5 and 68.1 and 61 and 93 | Proliferation of Pa16C cells expressing MEK1 mutant constructs ([9]; MEK1E102-I103del, inhibitor 100.000 nM): 65.9 and 65.1 and 49.1 and 77.1 | Proliferation of Pa16C cells expressing MEK1 mutant constructs ([9]; MEK1E102-I103del, inhibitor 300.000 nM): 58.5 and 56.3 and 42.3 and 60.5 | Proliferation of Pa16C cells expressing MEK1 mutant constructs ([9]; MEK1K57N, inhibitor 0.010 nM): 100 | Proliferation of Pa16C cells expressing MEK1 mutant constructs ([9]; MEK1K57N, inhibitor 0.046 nM): 132.7 and 110.5 and 108.3 | Proliferation of Pa16C cells expressing MEK1 mutant constructs ([9]; MEK1K57N, inhibitor 11.111 nM): 106.5 and 108.3 and 128.9 | Proliferation of Pa16C cells expressing MEK1 mutant constructs ([9]; MEK1K57N, inhibitor 33.333 nM): 101 and 88.9 and 126.9
